The source of these data is patent publication US20050032908A1, “Methods for treating metabolic syndrome” (priority 2003, published 2005).

A short description of assay [1]: Pooled analysis of double-blind, placebo-controlled, non-diabetic studies of at least 6 months duration in subjects with metabolic syndrome at baseline. It is filed as in vivo, human. The note with it: compared to placebo; change from baseline to latest assessment after month 6 up to month 12. An excerpt:
(§1) The benefits of sibutramine therapy can be extended to subjects with metabolic syndrome. The treatment effect of sibutramine on subjects that had metabolic syndrome at study entry in the STORM trial and by a pooled analysis of double-blind, placebo-controlled, non-diabetic studies of at least 6 months duration were studied. Subjects were identified who had increased abdominal obesity (waist circumference), decreased HDL cholesterol, and elevated triglycerides (TG) at baseline, and who also completed at least 6 months of sibutramine treatment (pooled analysis subjects: 266 sibutramine, 134 placebo; STORM: 80 sibutramine). Since all subjects in the STORM trial received sibutramine for the first 6 months of the study, only subjects subsequently randomized to receive sibutramine for a longer duration were included. The analyses for each variable were based on change from baseline to latest assessment after month 6, up to and including month 12.

Assay [2] can be described thus: STORM trial subjects that had metabolic syndrome at study entry. It is filed as in vivo, human. The note with it: sibutramine treatment group, 80 subjects; change from baseline to latest assessment after month 6 up to month 12.
Text: as §1

The conditions of assay [3]: cited from earlier work.
The conditions of assay [4]: compared to placebo; cited from earlier work.
The mark [5] stands for this setting: subjects who lost and maintained weight, compared to the baseline values of all subjects.

Each structure is given as a SMILES string. Where two headings read alike, the source gives them in different places.

`CC(C)CC(N(C)C)C1(c2ccc(Cl)cc2)CCC1` (centres unmarked) [sibutramine, N,N-dimethyl-1-[1-(4-chlorophenyl)cyclobutyl]-3-methylbutylamine]: in assay [1], the HDL result was “clinically and statistically significant improvements”; the TG entry was “clinically and statistically significant improvements”; the waist circumference result was “clinically and statistically significant improvements”; the weight loss entry was “clinically and statistically significant improvements”. Moreover, in assay [2], the HDL result is “favorable changes”, the TG entry is “favorable changes”, the waist circumference result is recorded as “favorable changes” and the weight loss result was “favorable changes”. The “subjects who maintained ≧10% weight reduction” value in assay [3] (at the end of two years of treatment, placebo 21%) is 46%. In assay [3] (at the end of two years of treatment, placebo 44%), the “subjects who maintained ≧5% weight reduction” value is given as 69%. Moreover, the “mean fasting insulin levels” value in assay [3] (at two years) is recorded as “reduced”. Further, the “subjects who completed the trial and maintained at least 80% of their month six weight loss” value in assay [3] (at two years, placebo 16%) was 43%. Moreover, the mean weight loss in assay [3] (first six months, subjects achieving ≧5% weight reduction) is 26 lbs. Moreover, the “subjects who achieved a ≧5% weight reduction” value in assay [3] (of the 499 subjects who completed the first six months, sibutramine with reduced calorie diet and increased physical activity) is listed as 94%. Moreover, in assay [3] (setting [5]), the HDL cholesterol entry was “clinically and statistically significant improvements”; the triglycerides result is “clinically and statistically significant improvements”; the waist circumference entry is “clinically and statistically significant improvements”. Besides, the impaired fasting glucose result in assay [3] (two years) is reported as “significantly changed”. Moreover, in assay [4], the HDL cholesterol entry was “significant improvements”, the “fasting blood glucose levels” value is “not significantly changed”, the insulin levels result is “significant improvements” and the triglyceride levels entry was “significant improvements”. The “waist circumference (a measure for abdominal obesity)” value in assay [4] is listed as “significant improvements”.
